Laboratory results as given in ChEMBL document CHEMBL5678810.
Activity calls are given as the source filed them. The calls are words filed in the database; no cut-off is given here.

Columns and labels:
[1] = molecular target: Casein kinase I isoform epsilon (Homo sapiens) (UniProt P49674); assay: Inhibition of T7 bacteriophage fused human CSNK1E at 10 uM by KINOMEscan analysis relative to control
[2] = molecular target: RAC-alpha serine/threonine-protein kinase (Homo sapiens) (UniProt P31749); assay: Inhibition of T7 bacteriophage fused human AKT1 at 10 uM by KINOMEscan analysis relative to control
[3] = molecular target: Myotonin-protein kinase (Homo sapiens) (UniProt Q09013); assay: Inhibition of T7 bacteriophage fused human DMPK at 10 uM by KINOMEscan analysis relative to control
[4] = molecular target: Cyclin-dependent kinase 9 (Homo sapiens) (UniProt P50750); assay: Inhibition of T7 bacteriophage fused human CDK9 at 10 uM by KINOMEscan analysis relative to control
[5] = molecular target: Mitogen-activated protein kinase kinase kinase 13 (Homo sapiens) (UniProt O43283); assay: Inhibition of T7 bacteriophage fused human LZK at 10 uM by KINOMEscan analysis relative to control
[6] = molecular target: Tyrosine-protein kinase Lck (Homo sapiens) (UniProt P06239); assay: Inhibition of T7 bacteriophage fused human LCK at 10 uM by KINOMEscan analysis relative to control
[7] = tested on: Tyrosine-protein kinase ABL1 (Homo sapiens), P00519 [Q252H]; assay: Inhibition of T7 bacteriophage fused human phosphorylated ABL1 Q252H mutant at 10 uM by KINOMEscan analysis relative to control
[8] = tested on: Mast/stem cell growth factor receptor Kit (Homo sapiens), P10721 [L576P]; assay: Inhibition of T7 bacteriophage fused human KIT L576P mutant at 10 uM by KINOMEscan analysis relative to control
[9] = molecular target: Ephrin type-A receptor 7 (Homo sapiens) (UniProt Q15375); assay: Inhibition of T7 bacteriophage fused human EPHA7 at 10 uM by KINOMEscan analysis relative to control; values are per cent of control
[10] = molecular target: Casein kinase II subunit alpha (Homo sapiens) (UniProt P68400); assay: Inhibition of T7 bacteriophage fused human CSNK2A1 at 10 uM by KINOMEscan analysis relative to control
[11] = tested on: Epidermal growth factor receptor (Homo sapiens), P00533 [UNDEFINED MUTATION]; assay: Inhibition of T7 bacteriophage fused human EGFR L747/E749del/A750P mutant at 10 uM by KINOMEscan analysis relative to control; values are per cent of control
[12] = molecular target: Phosphatidylinositol 3-kinase C2 domain-containing subunit gamma (Homo sapiens) (UniProt O75747); assay: Inhibition of T7 bacteriophage fused human PIK3C2G at 10 uM by KINOMEscan analysis relative to control
[13] = molecular target: Serine/threonine-protein kinase RIO2 (Homo sapiens) (UniProt Q9BVS4); assay: Inhibition of T7 bacteriophage fused human RIOK2 at 10 uM by KINOMEscan analysis relative to control
[14] = molecular target: Calcium/calmodulin-dependent protein kinase kinase 2 (Homo sapiens) (UniProt Q96RR4); assay: Inhibition of T7 bacteriophage fused human CAMKK2 at 10 uM by KINOMEscan analysis relative to control
[15] = molecular target: Tyrosine-protein kinase ZAP-70 (Homo sapiens) (UniProt P43403); assay: Inhibition of T7 bacteriophage fused human ZAP70 at 10 uM by KINOMEscan analysis relative to control
[16] = molecular target: Serine/threonine-protein kinase DCLK1 (Homo sapiens) (UniProt O15075); assay: Inhibition of T7 bacteriophage fused human DCAMKL1 at 10 uM by KINOMEscan analysis relative to control; values are per cent of control
[17] = molecular target: Serine/threonine-protein kinase SIK3 (Homo sapiens) (UniProt Q9Y2K2); assay: Inhibition of T7 bacteriophage fused human QSK at 10 uM by KINOMEscan analysis relative to control
[18] = molecular target: Myosin light chain kinase (Homo sapiens) (UniProt Q32MK0); assay: Inhibition of T7 bacteriophage fused human MLCK at 10 uM by KINOMEscan analysis relative to control
[19] = molecular target: Focal adhesion kinase 1 (Homo sapiens) (UniProt Q05397); assay: Inhibition of T7 bacteriophage fused human FAK at 10 uM by KINOMEscan analysis relative to control; values are per cent of control
[20] = molecular target: Death-associated protein kinase 1 (Homo sapiens) (UniProt P53355); assay: Inhibition of T7 bacteriophage fused human DAPK1 at 10 uM by KINOMEscan analysis relative to control; values are per cent of control
[21] = molecular target: Phosphatidylinositol 4,5-bisphosphate 3-kinase catalytic subunit delta isoform (Homo sapiens) (UniProt O00329); assay: Inhibition of T7 bacteriophage fused human PIK3CD at 10 uM by KINOMEscan analysis relative to control
[22] = molecular target: Receptor tyrosine-protein kinase erbB-2 (Homo sapiens) (UniProt P04626); assay: Inhibition of T7 bacteriophage fused human ERBB2 at 10 uM by KINOMEscan analysis relative to control
[23] = molecular target: Calcium/calmodulin-dependent protein kinase kinase 1 (Homo sapiens) (UniProt Q8N5S9); assay: Inhibition of T7 bacteriophage fused human CAMKK1 at 10 uM by KINOMEscan analysis relative to control
[24] = molecular target: Homeodomain-interacting protein kinase 2 (Homo sapiens) (UniProt Q9H2X6); assay: Inhibition of T7 bacteriophage fused human HIPK2 at 10 uM by KINOMEscan analysis relative to control
[25] = molecular target: RAC-beta serine/threonine-protein kinase (Homo sapiens) (UniProt P31751); assay: Inhibition of T7 bacteriophage fused human AKT2 at 10 uM by KINOMEscan analysis relative to control
[26] = molecular target: Serine/threonine-protein kinase 17A (Homo sapiens) (UniProt Q9UEE5); assay: Inhibition of T7 bacteriophage fused human DRAK1 at 10 uM by KINOMEscan analysis relative to control
[27] = molecular target: Cyclin-dependent kinase-like 3 (Homo sapiens) (UniProt Q8IVW4); assay: Inhibition of T7 bacteriophage fused human CDKL3 at 10 uM by KINOMEscan analysis relative to control; values are per cent of control
[28] = molecular target: Serine/threonine-protein kinase MRCK alpha (Homo sapiens) (UniProt Q5VT25); assay: Inhibition of T7 bacteriophage fused human MRCKA at 10 uM by KINOMEscan analysis relative to control
[29] = molecular target: Ribosomal protein S6 kinase alpha-1 (Homo sapiens) (UniProt Q15418); assay: Inhibition of T7 bacteriophage fused human C-terminal RSK1 Kinase domain-2 at 10 uM by KINOMEscan analysis relative to control
[30] = molecular target: Leucine-rich repeat serine/threonine-protein kinase 2 (Homo sapiens) (UniProt Q5S007); assay: Inhibition of wildtype GFP-tagged LRRK2 phosphorylation at Ser935 residue (unknown origin) transfected in HEK293 cells upto 3 uM incubated for 90 mins by immunoblot analysis; type: cell-based

Chain of Casein kinase I isoform epsilon (Homo sapiens) (P49674 whole entry, looked up, the tested form may be a part, canonical isoform): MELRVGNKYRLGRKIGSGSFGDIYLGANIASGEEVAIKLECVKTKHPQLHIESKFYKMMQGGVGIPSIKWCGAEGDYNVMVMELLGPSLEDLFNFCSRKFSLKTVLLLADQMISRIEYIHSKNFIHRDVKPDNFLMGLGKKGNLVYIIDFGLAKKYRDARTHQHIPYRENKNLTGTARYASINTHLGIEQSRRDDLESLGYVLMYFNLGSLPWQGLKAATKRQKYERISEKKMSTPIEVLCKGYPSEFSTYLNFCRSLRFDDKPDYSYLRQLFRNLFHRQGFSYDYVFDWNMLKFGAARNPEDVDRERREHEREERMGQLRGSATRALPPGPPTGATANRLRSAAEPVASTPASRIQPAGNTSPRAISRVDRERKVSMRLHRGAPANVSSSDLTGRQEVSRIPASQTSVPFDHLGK
Chain of Mitogen-activated protein kinase kinase kinase 13 (Homo sapiens) (O43283 whole entry, the tested form may be a part): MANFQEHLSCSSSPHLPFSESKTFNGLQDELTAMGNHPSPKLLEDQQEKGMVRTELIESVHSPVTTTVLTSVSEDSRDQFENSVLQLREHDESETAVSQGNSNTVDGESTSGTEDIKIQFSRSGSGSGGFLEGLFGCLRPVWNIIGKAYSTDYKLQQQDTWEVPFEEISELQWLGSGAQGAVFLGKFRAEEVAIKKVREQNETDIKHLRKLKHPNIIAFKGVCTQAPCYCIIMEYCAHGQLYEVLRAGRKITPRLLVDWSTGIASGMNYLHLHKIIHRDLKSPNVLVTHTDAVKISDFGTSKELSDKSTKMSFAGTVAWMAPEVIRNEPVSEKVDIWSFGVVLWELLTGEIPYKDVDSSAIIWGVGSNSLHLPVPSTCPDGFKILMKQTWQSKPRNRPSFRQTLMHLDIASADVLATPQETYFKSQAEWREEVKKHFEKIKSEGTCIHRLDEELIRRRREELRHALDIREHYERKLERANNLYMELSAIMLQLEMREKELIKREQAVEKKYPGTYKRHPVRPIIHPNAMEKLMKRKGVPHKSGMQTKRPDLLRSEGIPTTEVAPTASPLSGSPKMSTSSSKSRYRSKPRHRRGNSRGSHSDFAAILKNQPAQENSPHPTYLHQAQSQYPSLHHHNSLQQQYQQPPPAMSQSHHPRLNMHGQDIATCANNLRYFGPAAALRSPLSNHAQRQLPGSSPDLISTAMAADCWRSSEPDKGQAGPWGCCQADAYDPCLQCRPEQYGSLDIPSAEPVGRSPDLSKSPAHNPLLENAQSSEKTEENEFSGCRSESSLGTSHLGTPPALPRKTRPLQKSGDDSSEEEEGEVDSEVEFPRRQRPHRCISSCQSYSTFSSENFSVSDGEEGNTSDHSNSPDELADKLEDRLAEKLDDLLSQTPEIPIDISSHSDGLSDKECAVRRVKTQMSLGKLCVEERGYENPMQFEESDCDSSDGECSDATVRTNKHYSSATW
Chain of Ephrin type-A receptor 7 (Homo sapiens) (Q15375 28-998 limits assumed): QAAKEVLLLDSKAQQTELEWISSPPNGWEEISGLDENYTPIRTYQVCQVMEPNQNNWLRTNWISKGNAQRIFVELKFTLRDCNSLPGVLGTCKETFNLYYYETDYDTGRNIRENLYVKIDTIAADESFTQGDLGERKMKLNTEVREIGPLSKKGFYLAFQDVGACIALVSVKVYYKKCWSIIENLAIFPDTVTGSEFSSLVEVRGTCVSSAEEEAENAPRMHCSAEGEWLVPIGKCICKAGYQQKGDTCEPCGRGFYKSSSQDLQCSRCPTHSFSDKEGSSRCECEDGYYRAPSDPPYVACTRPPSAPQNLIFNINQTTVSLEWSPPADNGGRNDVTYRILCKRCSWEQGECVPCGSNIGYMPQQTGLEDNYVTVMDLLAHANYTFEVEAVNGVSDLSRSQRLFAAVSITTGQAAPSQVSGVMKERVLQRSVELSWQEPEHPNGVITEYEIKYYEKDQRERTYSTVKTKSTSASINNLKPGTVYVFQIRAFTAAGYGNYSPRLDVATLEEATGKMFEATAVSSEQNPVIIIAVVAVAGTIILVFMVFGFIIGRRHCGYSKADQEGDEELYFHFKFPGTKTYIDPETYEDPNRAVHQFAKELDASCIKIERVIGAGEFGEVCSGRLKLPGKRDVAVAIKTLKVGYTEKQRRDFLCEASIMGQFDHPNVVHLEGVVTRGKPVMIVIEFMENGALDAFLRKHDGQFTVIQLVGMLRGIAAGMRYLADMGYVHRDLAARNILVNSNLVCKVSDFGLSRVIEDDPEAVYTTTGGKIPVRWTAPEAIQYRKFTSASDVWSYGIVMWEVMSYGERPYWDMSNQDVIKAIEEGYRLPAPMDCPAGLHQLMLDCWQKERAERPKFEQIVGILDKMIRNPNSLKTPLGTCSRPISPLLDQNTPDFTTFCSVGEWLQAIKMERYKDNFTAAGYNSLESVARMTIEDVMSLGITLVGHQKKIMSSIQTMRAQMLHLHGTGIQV
Chain of Calcium/calmodulin-dependent protein kinase kinase 2 (Homo sapiens) (Q96RR4 2-588 limits assumed): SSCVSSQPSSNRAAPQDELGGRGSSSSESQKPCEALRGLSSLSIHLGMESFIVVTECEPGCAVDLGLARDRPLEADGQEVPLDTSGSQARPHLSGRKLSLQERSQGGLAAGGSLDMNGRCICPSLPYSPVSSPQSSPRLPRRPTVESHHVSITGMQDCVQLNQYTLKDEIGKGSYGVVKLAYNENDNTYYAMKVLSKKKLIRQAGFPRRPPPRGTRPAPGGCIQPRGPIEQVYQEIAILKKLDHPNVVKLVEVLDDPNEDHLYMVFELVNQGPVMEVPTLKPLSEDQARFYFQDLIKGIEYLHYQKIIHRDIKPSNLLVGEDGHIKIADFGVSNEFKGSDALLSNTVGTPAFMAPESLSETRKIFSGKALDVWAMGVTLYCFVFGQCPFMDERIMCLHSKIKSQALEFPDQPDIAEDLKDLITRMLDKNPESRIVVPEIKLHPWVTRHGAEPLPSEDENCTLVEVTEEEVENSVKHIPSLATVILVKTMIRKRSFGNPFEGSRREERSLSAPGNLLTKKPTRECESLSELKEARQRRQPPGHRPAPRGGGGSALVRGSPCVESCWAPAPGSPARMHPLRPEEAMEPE
Chain of Casein kinase II subunit alpha (Homo sapiens) (P68400 whole entry, looked up, the tested form may be a part): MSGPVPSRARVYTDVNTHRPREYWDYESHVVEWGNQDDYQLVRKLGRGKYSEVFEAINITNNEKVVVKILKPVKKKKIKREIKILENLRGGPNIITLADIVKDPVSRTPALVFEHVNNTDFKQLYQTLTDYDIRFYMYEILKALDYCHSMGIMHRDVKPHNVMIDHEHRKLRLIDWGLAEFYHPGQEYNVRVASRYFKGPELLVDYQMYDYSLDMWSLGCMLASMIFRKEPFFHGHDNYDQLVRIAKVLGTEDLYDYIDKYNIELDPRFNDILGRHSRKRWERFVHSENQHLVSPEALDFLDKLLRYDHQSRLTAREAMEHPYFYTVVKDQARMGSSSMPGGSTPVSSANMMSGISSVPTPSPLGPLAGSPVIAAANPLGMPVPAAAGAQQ
Chain of Cyclin-dependent kinase-like 3 (Homo sapiens) (Q8IVW4 whole entry, looked up, the tested form may be a part): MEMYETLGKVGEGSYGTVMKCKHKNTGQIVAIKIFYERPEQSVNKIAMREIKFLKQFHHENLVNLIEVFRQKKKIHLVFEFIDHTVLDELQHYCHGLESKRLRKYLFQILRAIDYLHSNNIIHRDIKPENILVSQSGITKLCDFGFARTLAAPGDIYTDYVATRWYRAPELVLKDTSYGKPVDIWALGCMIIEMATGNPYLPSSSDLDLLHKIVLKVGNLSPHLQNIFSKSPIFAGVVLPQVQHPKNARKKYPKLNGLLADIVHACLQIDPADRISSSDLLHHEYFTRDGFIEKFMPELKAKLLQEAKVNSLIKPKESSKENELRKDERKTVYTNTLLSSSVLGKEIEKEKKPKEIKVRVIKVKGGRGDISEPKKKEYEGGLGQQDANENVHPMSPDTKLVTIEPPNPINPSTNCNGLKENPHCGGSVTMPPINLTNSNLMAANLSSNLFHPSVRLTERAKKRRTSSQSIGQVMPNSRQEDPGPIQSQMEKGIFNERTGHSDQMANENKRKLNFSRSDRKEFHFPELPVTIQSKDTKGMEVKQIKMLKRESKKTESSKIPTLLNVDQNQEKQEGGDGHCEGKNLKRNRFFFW
Chain of Serine/threonine-protein kinase DCLK1 (Homo sapiens) (O15075 whole entry, the tested form may be a part): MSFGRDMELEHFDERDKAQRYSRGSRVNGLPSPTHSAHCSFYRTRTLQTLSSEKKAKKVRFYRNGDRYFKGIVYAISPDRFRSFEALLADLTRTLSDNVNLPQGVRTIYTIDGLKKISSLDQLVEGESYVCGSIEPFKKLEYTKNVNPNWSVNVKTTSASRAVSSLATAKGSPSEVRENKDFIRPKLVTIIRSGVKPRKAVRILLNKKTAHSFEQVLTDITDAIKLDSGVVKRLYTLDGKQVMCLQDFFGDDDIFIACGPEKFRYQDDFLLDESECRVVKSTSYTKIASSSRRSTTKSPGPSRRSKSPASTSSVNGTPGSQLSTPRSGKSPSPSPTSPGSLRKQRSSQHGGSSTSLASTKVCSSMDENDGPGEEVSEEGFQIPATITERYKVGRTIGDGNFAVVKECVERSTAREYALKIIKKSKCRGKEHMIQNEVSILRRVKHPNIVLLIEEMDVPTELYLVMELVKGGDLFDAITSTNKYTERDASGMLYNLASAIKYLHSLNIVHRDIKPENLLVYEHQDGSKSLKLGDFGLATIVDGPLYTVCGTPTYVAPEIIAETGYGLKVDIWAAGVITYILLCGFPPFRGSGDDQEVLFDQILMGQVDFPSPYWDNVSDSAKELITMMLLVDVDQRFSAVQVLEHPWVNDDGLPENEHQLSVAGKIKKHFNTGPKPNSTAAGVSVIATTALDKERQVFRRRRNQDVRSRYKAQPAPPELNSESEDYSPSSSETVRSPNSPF
Chain of Cyclin-dependent kinase 9 (Homo sapiens) (P50750 whole entry, the tested form may be a part): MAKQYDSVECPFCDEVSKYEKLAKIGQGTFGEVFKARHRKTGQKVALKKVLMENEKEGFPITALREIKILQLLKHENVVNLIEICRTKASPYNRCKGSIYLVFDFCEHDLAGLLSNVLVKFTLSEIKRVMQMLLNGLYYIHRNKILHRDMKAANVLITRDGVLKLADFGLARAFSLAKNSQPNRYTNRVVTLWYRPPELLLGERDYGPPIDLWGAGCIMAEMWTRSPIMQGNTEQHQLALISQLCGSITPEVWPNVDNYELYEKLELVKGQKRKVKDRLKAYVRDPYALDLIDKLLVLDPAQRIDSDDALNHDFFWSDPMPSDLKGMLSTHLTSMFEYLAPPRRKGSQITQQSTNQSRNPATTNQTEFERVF

SMILES: COc1cc(N2CCC(N3CCN(C)CC3)CC2)ccc1Nc1ncc2c(n1)N(C)c1ccccc1C(=O)N2C
- inhibition [1]: 95%
- inhibition [2]: 79%
- inhibition [3]: 100%
- inhibition [4]: 100%
- inhibition [5]: 100%
- inhibition [6]: 100%
- inhibition [7]: 100%
- inhibition [8]: 100%
- residual activity [9]: 97%
- inhibition [10]: 100%
- residual activity [11]: 78%
- inhibition [12]: 100%
- inhibition [13]: 100%
- inhibition [14]: 31%
- inhibition [15]: 79%
- residual activity [16]: 4.2%
- inhibition [17]: 100%
- inhibition [18]: 100%
- residual activity [19]: 34%
- residual activity [20]: 73%
- inhibition [21]: 62%
- inhibition [22]: 100%
- inhibition [23]: 73%
- inhibition [24]: 88%
- inhibition [25]: 100%
- inhibition [26]: 100%
- residual activity [27]: 83%
- inhibition [28]: 100%
- inhibition [29]: 10%

SMILES: CCOc1cc(C(=O)N2CCC(N3CCN(C)CC3)CC2)ccc1Nc1ncc2c(n1)N(C1CCCC1)c1ccccc1C(=O)N2C
- inhibition [30]: inactive
